Results from PubChem BioAssay (NCI).
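Exposure lasted 48 hours, with cells grown in 96-well plates and compounds tested at five concentrations. Abbreviation: GI50, concentration required for 50% inhibition of growth. Definition used: TGI = concentration required for complete inhibition of growth.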

How the values were obtained:
Assay in all cases: NCI-60 cell line screen, 48 h
786-0 renal = system: 786-0 renal
A498 renal = system: A498 renal
A549 NSCLC = system: A549 NSCLC
ACHN renal = system: ACHN renal
BT-549 breast = system: BT-549 breast
CAKI-1 renal = system: CAKI-1 renal
CCRF-CEM leukemia = system: CCRF-CEM leukemia
COLO 205 colon = system: COLO 205 colon
DU-145 prostate = system: DU-145 prostate
EKVX NSCLC = system: EKVX NSCLC
HCC-2998 colon = system: HCC-2998 colon
HCT-116 colon = system: HCT-116 colon
HCT-15 colon = system: HCT-15 colon
HL-60(TB) leukemia = system: HL-60(TB) leukemia
HOP-62 NSCLC = system: HOP-62 NSCLC
HOP-92 NSCLC = system: HOP-92 NSCLC
HS 578T breast = system: HS 578T breast
HT29 colon = system: HT29 colon
IGROV1 ovarian = system: IGROV1 ovarian
K-562 leukemia = system: K-562 leukemia
KM12 colon = system: KM12 colon
LOX IMVI melanoma = system: LOX IMVI melanoma
M14 melanoma = system: M14 melanoma
MALME-3M melanoma = system: MALME-3M melanoma
MCF7 breast = system: MCF7 breast
MDA-MB-231 breast = system: MDA-MB-231 breast
MDA-MB-435 = system: MDA-MB-435
MOLT-4 leukemia = system: MOLT-4 leukemia
NCI-H226 lung = system: NCI-H226 lung
NCI-H23 lung = system: NCI-H23 lung
NCI-H460 lung = system: NCI-H460 lung
NCI-H522 lung = system: NCI-H522 lung
NCI/ADR-RES ovarian = system: NCI/ADR-RES ovarian
OVCAR-3 ovarian = system: OVCAR-3 ovarian
OVCAR-4 ovarian = system: OVCAR-4 ovarian
OVCAR-5 ovarian = system: OVCAR-5 ovarian
OVCAR-8 ovarian = system: OVCAR-8 ovarian
PC-3 prostate = system: PC-3 prostate
RPMI-8226 leukemia = system: RPMI-8226 leukemia
SF-268 CNS = system: SF-268 CNS
SF-295 CNS = system: SF-295 CNS
SF-539 CNS = system: SF-539 CNS
SK-MEL-2 melanoma = system: SK-MEL-2 melanoma
SK-MEL-28 melanoma = system: SK-MEL-28 melanoma
SK-MEL-5 melanoma = system: SK-MEL-5 melanoma
SK-OV-3 ovarian = system: SK-OV-3 ovarian
SN12C renal = system: SN12C renal
SNB-19 CNS = system: SNB-19 CNS
SNB-75 CNS = system: SNB-75 CNS
SR leukemia = system: SR leukemia
SW-620 colon = system: SW-620 colon
T-47D breast = system: T-47D breast
TK-10 renal = system: TK-10 renal
U251 CNS = system: U251 CNS
UACC-257 melanoma = system: UACC-257 melanoma
UACC-62 melanoma = system: UACC-62 melanoma
UO-31 renal = system: UO-31 renal
RXF 393 renal = system: RXF 393 renal

SMILES: CC(C)(O)c1cncc(-c2ccc3ncc(C#N)c(N4CCc5cc(F)c(Cl)cc54)c3c2)c1
- GI50 (786-0 renal): 3.86 µM
- TGI (786-0 renal): > 100 µM
- GI50 (A498 renal): 2.07 µM
- TGI (A498 renal): 6.17 µM
- GI50 (A549 NSCLC): 3.64 µM
- TGI (A549 NSCLC): > 100 µM
- GI50 (ACHN renal): 2.89 µM
- TGI (ACHN renal): > 100 µM
- GI50 (BT-549 breast): 2.7 µM
- TGI (BT-549 breast): 22.7 µM
- GI50 (CAKI-1 renal): 2.37 µM
- TGI (CAKI-1 renal): > 100 µM
- GI50 (CCRF-CEM leukemia): 4.25 µM
- TGI (CCRF-CEM leukemia): > 100 µM
- GI50 (COLO 205 colon): 4.48 µM
- TGI (COLO 205 colon): 26.7 µM
- GI50 (DU-145 prostate): 3.71 µM
- TGI (DU-145 prostate): > 100 µM
- GI50 (EKVX NSCLC): 2.55 µM
- TGI (EKVX NSCLC): 11.3 µM
- GI50 (HCC-2998 colon): 3.75 µM
- TGI (HCC-2998 colon): 63.8 µM
- GI50 (HCT-116 colon): 5.84 µM
- TGI (HCT-116 colon): > 100 µM
- GI50 (HCT-15 colon): 4.28 µM
- TGI (HCT-15 colon): > 100 µM
- GI50 (HL-60(TB) leukemia): 6.06 µM
- TGI (HL-60(TB) leukemia): 28.2 µM
- GI50 (HOP-62 NSCLC): 2.7 µM
- TGI (HOP-62 NSCLC): 57.3 µM
- GI50 (HOP-92 NSCLC): 1.79 µM
- TGI (HOP-92 NSCLC): 7.79 µM
- GI50 (HS 578T breast): 1.23 µM
- TGI (HS 578T breast): 4.7 µM
- GI50 (HT29 colon): 3.31 µM
- TGI (HT29 colon): > 100 µM
- GI50 (IGROV1 ovarian): 1.57 µM
- TGI (IGROV1 ovarian): 6.55 µM
- GI50 (K-562 leukemia): 7.09 µM
- TGI (K-562 leukemia): > 100 µM
- GI50 (KM12 colon): 6.81 µM
- TGI (KM12 colon): > 100 µM
- GI50 (LOX IMVI melanoma): 1.81 µM
- TGI (LOX IMVI melanoma): 17.3 µM
- GI50 (M14 melanoma): 3.79 µM
- TGI (M14 melanoma): > 100 µM
- GI50 (MALME-3M melanoma): 1.99 µM
- TGI (MALME-3M melanoma): 7.06 µM
- GI50 (MCF7 breast): 6 µM
- TGI (MCF7 breast): 53.4 µM
- GI50 (MDA-MB-231 breast): 2.6 µM
- TGI (MDA-MB-231 breast): 30.4 µM
- GI50 (MDA-MB-435): 3.36 µM
- TGI (MDA-MB-435): 32.4 µM
- GI50 (MOLT-4 leukemia): 3.11 µM
- TGI (MOLT-4 leukemia): > 100 µM
- GI50 (NCI-H226 lung): 1.77 µM
- TGI (NCI-H226 lung): 15.4 µM
- GI50 (NCI-H23 lung): 3.6 µM
- TGI (NCI-H23 lung): 64.3 µM
- GI50 (NCI-H460 lung): 3.24 µM
- TGI (NCI-H460 lung): > 100 µM
- GI50 (NCI-H522 lung): 3.95 µM
- TGI (NCI-H522 lung): > 100 µM
- GI50 (NCI/ADR-RES ovarian): 4.4 µM
- TGI (NCI/ADR-RES ovarian): 98.2 µM
- GI50 (OVCAR-3 ovarian): 2.91 µM
- TGI (OVCAR-3 ovarian): 40.3 µM
- GI50 (OVCAR-4 ovarian): 2.84 µM
- TGI (OVCAR-4 ovarian): 18.5 µM
- GI50 (OVCAR-5 ovarian): 3.3 µM
- TGI (OVCAR-5 ovarian): 82.7 µM
- GI50 (OVCAR-8 ovarian): 3.19 µM
- TGI (OVCAR-8 ovarian): > 100 µM
- GI50 (PC-3 prostate): 2.86 µM
- TGI (PC-3 prostate): > 100 µM
- GI50 (RPMI-8226 leukemia): 2.92 µM
- TGI (RPMI-8226 leukemia): 87.4 µM
- GI50 (SF-268 CNS): 3.84 µM
- TGI (SF-268 CNS): > 100 µM
- GI50 (SF-295 CNS): 2.38 µM
- TGI (SF-295 CNS): 14.1 µM
- GI50 (SF-539 CNS): 2.88 µM
- TGI (SF-539 CNS): 15.8 µM
- GI50 (SK-MEL-2 melanoma): 4.26 µM
- TGI (SK-MEL-2 melanoma): 21.6 µM
- GI50 (SK-MEL-28 melanoma): 3.39 µM
- TGI (SK-MEL-28 melanoma): 41 µM
- GI50 (SK-MEL-5 melanoma): 3.95 µM
- TGI (SK-MEL-5 melanoma): 13.8 µM
- GI50 (SK-OV-3 ovarian): 1.83 µM
- TGI (SK-OV-3 ovarian): 8.64 µM
- GI50 (SN12C renal): 2.03 µM
- TGI (SN12C renal): > 100 µM
- GI50 (SNB-19 CNS): 4.08 µM
- TGI (SNB-19 CNS): > 100 µM
- GI50 (SNB-75 CNS): 1.22 µM
- TGI (SNB-75 CNS): 5.67 µM
- GI50 (SR leukemia): 3.52 µM
- TGI (SR leukemia): > 100 µM
- GI50 (SW-620 colon): 4.51 µM
- TGI (SW-620 colon): > 100 µM
- GI50 (T-47D breast): 4.06 µM
- TGI (T-47D breast): 76.5 µM
- GI50 (TK-10 renal): 8.33 µM
- TGI (TK-10 renal): 40 µM
- GI50 (U251 CNS): 4.71 µM
- TGI (U251 CNS): > 100 µM
- GI50 (UACC-257 melanoma): 4.22 µM
- TGI (UACC-257 melanoma): 63.3 µM
- GI50 (UACC-62 melanoma): 1.84 µM
- TGI (UACC-62 melanoma): 10.2 µM
- GI50 (UO-31 renal): 0.554 µM
- TGI (UO-31 renal): 8.69 µM

SMILES: CCOC(=O)c1c(NC(=O)c2cccc(C(F)(F)F)c2)sc2c1CCC(=O)C2
- GI50 (786-0 renal): 3.54 µM
- TGI (786-0 renal): > 100 µM
- GI50 (A498 renal): > 100 µM
- TGI (A498 renal): > 100 µM
- GI50 (ACHN renal): 2.65 µM
- TGI (ACHN renal): > 100 µM
- GI50 (BT-549 breast): 1.61 µM
- TGI (BT-549 breast): > 100 µM
- GI50 (CCRF-CEM leukemia): 1.03 µM
- TGI (CCRF-CEM leukemia): > 100 µM
- GI50 (DU-145 prostate): > 100 µM
- TGI (DU-145 prostate): > 100 µM
- GI50 (HCT-116 colon): 0.49 µM
- TGI (HCT-116 colon): > 100 µM
- GI50 (HCT-15 colon): 0.652 µM
- TGI (HCT-15 colon): > 100 µM
- GI50 (HL-60(TB) leukemia): 1.9 µM
- TGI (HL-60(TB) leukemia): > 100 µM
- GI50 (HOP-62 NSCLC): 5.2 µM
- TGI (HOP-62 NSCLC): > 100 µM
- GI50 (IGROV1 ovarian): 2.4 µM
- TGI (IGROV1 ovarian): > 100 µM
- GI50 (K-562 leukemia): 0.488 µM
- TGI (K-562 leukemia): > 100 µM
- GI50 (KM12 colon): 2.88 µM
- TGI (KM12 colon): > 100 µM
- GI50 (LOX IMVI melanoma): 0.633 µM
- TGI (LOX IMVI melanoma): > 100 µM
- GI50 (MALME-3M melanoma): > 100 µM
- TGI (MALME-3M melanoma): > 100 µM
- GI50 (MDA-MB-231 breast): 3.5 µM
- TGI (MDA-MB-231 breast): > 100 µM
- GI50 (NCI-H23 lung): 3 µM
- TGI (NCI-H23 lung): > 100 µM
- GI50 (NCI-H460 lung): 2.66 µM
- TGI (NCI-H460 lung): > 100 µM
- GI50 (NCI-H522 lung): 0.514 µM
- TGI (NCI-H522 lung): 6.81 µM
- GI50 (NCI/ADR-RES ovarian): 3.06 µM
- TGI (NCI/ADR-RES ovarian): > 100 µM
- GI50 (OVCAR-3 ovarian): 3.53 µM
- TGI (OVCAR-3 ovarian): > 100 µM
- GI50 (OVCAR-4 ovarian): 3.14 µM
- TGI (OVCAR-4 ovarian): > 100 µM
- GI50 (OVCAR-5 ovarian): 2.12 µM
- TGI (OVCAR-5 ovarian): > 100 µM
- GI50 (PC-3 prostate): 1.31 µM
- TGI (PC-3 prostate): > 100 µM
- GI50 (RXF 393 renal): 3.36 µM
- TGI (RXF 393 renal): 9.03 µM
- GI50 (SF-268 CNS): 4.17 µM
- TGI (SF-268 CNS): > 100 µM
- GI50 (SF-295 CNS): 3.08 µM
- TGI (SF-295 CNS): > 100 µM
- GI50 (SNB-19 CNS): 1.53 µM
- TGI (SNB-19 CNS): > 100 µM
- GI50 (SR leukemia): 0.526 µM
- TGI (SR leukemia): > 100 µM
- GI50 (SW-620 colon): 0.445 µM
- TGI (SW-620 colon): > 100 µM
- GI50 (T-47D breast): 2.12 µM
- TGI (T-47D breast): > 100 µM
- GI50 (TK-10 renal): 5.09 µM
- TGI (TK-10 renal): > 100 µM
- GI50 (U251 CNS): 0.479 µM
- TGI (U251 CNS): > 100 µM
- GI50 (UACC-257 melanoma): > 100 µM
- TGI (UACC-257 melanoma): > 100 µM
- GI50 (UACC-62 melanoma): 2.11 µM
- TGI (UACC-62 melanoma): > 100 µM
